Measured values reported in patent publication US20260176320A1, “MODULATORS OF G-PROTEIN COUPLED RECEPTORS” (priority 2018, published 2026).
Like-named read-outs stand apart in the source and are kept apart here.

Columns and labels:
Format in all cases: cell-based
[1] = molecular target: T1, GLP-1R (Homo sapiens, UniProt P43220); test: HitHunter cAMP assay (GLP-1R); conditions: cAMP; for Emax: read-out: (Emax) GLP-1R
In short: (§1)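 Cells were resuspended in HBSS plus HEPES, IBMX (625 μM) and BSA, then dispensed with antibody at 10,000 per well. Agonists followed as 22-point twofold series, 30 min at room temperature. Antibody reagent and detection steps ran 1 h and overnight in the dark before luminescence.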

[2] = molecular target: T2, GIP-R (Homo sapiens, UniProt P48546); test: HitHunter cAMP assay (GIP-R); conditions: cAMP; for Emax: read-out: (Emax) GIP-R
T2 sequence (P48546 22-466): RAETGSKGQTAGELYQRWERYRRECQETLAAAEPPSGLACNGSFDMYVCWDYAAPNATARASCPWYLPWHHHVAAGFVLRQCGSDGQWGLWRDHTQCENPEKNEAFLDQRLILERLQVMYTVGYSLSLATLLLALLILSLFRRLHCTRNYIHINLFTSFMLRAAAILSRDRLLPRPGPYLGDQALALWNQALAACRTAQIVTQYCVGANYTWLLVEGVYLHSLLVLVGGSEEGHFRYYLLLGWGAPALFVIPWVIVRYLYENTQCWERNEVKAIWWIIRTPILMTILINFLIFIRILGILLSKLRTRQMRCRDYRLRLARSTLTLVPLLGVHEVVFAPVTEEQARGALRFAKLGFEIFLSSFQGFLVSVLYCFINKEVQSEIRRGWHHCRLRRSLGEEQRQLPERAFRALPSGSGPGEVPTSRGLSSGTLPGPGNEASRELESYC
In short: as §1

[3] = molecular target: T1, GLP-1R; test: PathHunter β-arrestin assay
In short: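 Agonist concentration–response (22 points, 2-fold steps, duplicates) was run on cells plated the previous day in BSA-supplemented (0.2%) medium. Stimulation lasted 90 min at 37 °C, followed by a 3 h dark incubation with detection reagent at room temperature and a luminescence read.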

[4] = Table 3, read-out: EC50 GLP-1R/nM
[5] = Table 3A, read-out: EC50 GLP-1R/nM
[6] = Table 3, read-out: EC50 GIP-R/nM
[7] = Table 3A, read-out: EC50 GIP-R/nM
[8] = PathHunter β-arrestin assay, read-out: β-arrestin activity EC50

T1 sequence (P43220 24-463): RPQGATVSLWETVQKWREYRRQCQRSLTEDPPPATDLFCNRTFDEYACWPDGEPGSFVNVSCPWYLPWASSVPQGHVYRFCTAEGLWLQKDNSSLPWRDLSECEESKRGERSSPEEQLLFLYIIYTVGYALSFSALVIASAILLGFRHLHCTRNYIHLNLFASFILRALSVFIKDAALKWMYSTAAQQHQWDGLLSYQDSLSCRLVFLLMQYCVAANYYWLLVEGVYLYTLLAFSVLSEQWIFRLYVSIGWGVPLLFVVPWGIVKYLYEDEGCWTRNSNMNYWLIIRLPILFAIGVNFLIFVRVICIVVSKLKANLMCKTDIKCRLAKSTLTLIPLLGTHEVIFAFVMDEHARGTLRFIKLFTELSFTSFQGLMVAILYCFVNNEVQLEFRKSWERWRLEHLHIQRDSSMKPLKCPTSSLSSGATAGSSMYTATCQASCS

SMILES	Emax ([1]; Table 3) [%]	EC50 [1, 4] [nM]	Emax ([1]; Table 3A) [%]	EC50 [1, 5] [nM]	Emax ([2]; Table 3) [%]	EC50 [2, 6] [nM]	Emax ([2]; Table 3A) [%]	EC50 [2, 7] [nM]	EC50 [3, 8] [nM]	EC50 ([1]; EC50 GLP-1R/nM, Table 3) [nM]	EC50 ([1]; EC50 GLP-1R/nM, Table 3A) [nM]	EC50 ([2]; EC50 GIP-R/nM, Table 3) [nM]	EC50 ([2]; EC50 GIP-R/nM, Table 3A) [nM]	EC50 [3] [nM]	Emax at 1 µM ([2]; read-out: (Emax) GIP-R at 1 μM, Table 3, at 1 μM) [%]
CC[C@H](C)[C@H](NC(=O)[C@H](CO)NC(=O)[C@H](Cc1ccc(O)cc1)NC(=O)[C@H](CC(=O)O)NC(=O)[C@H](CO)NC(=O)[C@@H](NC(=O)[C@H](Cc1ccccc1)NC(=O)[C@@H](NC(=O)CNC(=O)[C@H](CCC(=O)O)NC(=O)C(C)(C)C(=O)NCCN1C(=O)CSC1=O)[C@@H](C)O)[C@@H](C)O)C(=O)N[C@@H](Cc1ccc(O)cc1)C(=O)N[C@@H](CC(C)C)C(=O)N[C@@H](CC(=O)O)C(=O)N[C@@H](CCCCN)C(=O)N[C@@H](CCC(N)=O)C(=O)N[C@@H](C)C(=O)N[C@@H](C)C(=O)NC(C)(C)C(=O)N[C@@H](CCC(=O)O)C(=O)N[C@@H](Cc1ccccc1)C(=O)N[C@H](C(=O)N[C@@H](CC(N)=O)C(=O)N[C@@H](Cc1c[nH]c2ccccc12)C(=O)N[C@@H](CC(C)C)C(=O)N[C@@H](CC(C)C)C(=O)N[C@@H](C)C(=O)NCC(=O)NCC(=O)N1CCC[C@H]1C(=O)N[C@@H](CO)C(=O)N[C@@H](CO)C(=O)NCC(=O)N[C@@H](C)C(=O)N1CCC[C@H]1C(=O)N1CCC[C@H]1C(=O)N1CCC[C@H]1C(=O)N[C@@H](CO)C(=O)N[C@@H](CCCCN)C(N)=O)C(C)C [Compound 153]	107	< 0.1	107	< 0.1	75 to 85	10 to 100	75 to 85	10 to 100	10 to 1000	–	–	–	–	–	–
CC[C@H](C)[C@H](NC(=O)[C@H](CO)NC(=O)[C@H](Cc1ccc(O)cc1)NC(=O)[C@H](CC(=O)O)NC(=O)[C@H](CO)NC(=O)[C@@H](NC(=O)[C@H](Cc1ccccc1)NC(=O)[C@@H](NC(=O)CNC(=O)[C@H](CCC(=O)O)NC(=O)CSCC(=O)NCCn1ncc2ccccc2c1=O)[C@@H](C)O)[C@@H](C)O)C(=O)N[C@@H](Cc1ccc(O)cc1)C(=O)N[C@@H](CC(C)C)C(=O)N[C@@H](CC(=O)O)C(=O)N[C@@H](CCCCN)C(=O)N[C@@H](CCC(N)=O)C(=O)N[C@@H](C)C(=O)N[C@@H](C)C(=O)NC(C)(C)C(=O)N[C@@H](CCC(=O)O)C(=O)N[C@@H](Cc1ccccc1)C(=O)N[C@H](C(=O)N[C@@H](CC(N)=O)C(=O)N[C@@H](Cc1c[nH]c2ccccc12)C(=O)N[C@@H](CC(C)C)C(=O)N[C@@H](CC(C)C)C(=O)N[C@@H](C)C(=O)NCC(=O)NCC(=O)N1CCC[C@H]1C(=O)N[C@@H](CO)C(=O)N[C@@H](CO)C(=O)NCC(=O)N[C@@H](C)C(=O)N1CCC[C@H]1C(=O)N1CCC[C@H]1C(=O)N1CCC[C@H]1C(=O)N[C@@H](CO)C(=O)N[C@@H](CCCCN)C(N)=O)C(C)C [Compound 136]	91 to 94	–	91 to 94	–	105	–	105	–	–	10 to 100	10 to 100	0.1 to 1	0.1 to 1	> 1000	–
CC[C@H](C)[C@H](NC(=O)[C@H](CO)NC(=O)[C@H](Cc1ccc(O)cc1)NC(=O)[C@H](CC(=O)O)NC(=O)[C@H](CO)NC(=O)[C@@H](NC(=O)[C@H](Cc1ccccc1)NC(=O)[C@@H](NC(=O)CNC(=O)[C@H](CCC(=O)O)NC(=O)c1ccc(C(=O)NCCN2C(=O)CSC2=O)cc1)[C@@H](C)O)[C@@H](C)O)C(=O)N[C@@H](Cc1ccc(O)cc1)C(=O)N[C@@H](CC(C)C)C(=O)N[C@@H](CC(=O)O)C(=O)N[C@@H](CCCCN)C(=O)N[C@@H](CCC(N)=O)C(=O)N[C@@H](C)C(=O)N[C@@H](C)C(=O)NC(C)(C)C(=O)N[C@@H](CCC(=O)O)C(=O)N[C@@H](Cc1ccccc1)C(=O)N[C@H](C(=O)N[C@@H](CC(N)=O)C(=O)N[C@@H](Cc1c[nH]c2ccccc12)C(=O)N[C@@H](CC(C)C)C(=O)N[C@@H](CC(C)C)C(=O)N[C@@H](C)C(=O)NCC(=O)NCC(=O)N1CCC[C@H]1C(=O)N[C@@H](CO)C(=O)N[C@@H](CO)C(=O)NCC(=O)N[C@@H](C)C(=O)N1CCC[C@H]1C(=O)N1CCC[C@H]1C(=O)N1CCC[C@H]1C(=O)N[C@@H](CO)C(=O)N[C@@H](CCCCN)C(N)=O)C(C)C [Compound 186]	94	1 to 10	94	1 to 10	–	> 1000	–	> 1000	> 1000	–	–	–	–	–	4
CCCCCCCCCCCCCCCC(=O)NCCCC[C@H](NC(=O)[C@H](CO)NC(=O)[C@@H]1CCCN1C(=O)[C@@H]1CCCN1C(=O)[C@@H]1CCCN1C(=O)[C@H](C)NC(=O)CNC(=O)[C@H](CO)NC(=O)[C@H](CO)NC(=O)[C@@H]1CCCN1C(=O)CNC(=O)CNC(=O)[C@H](C)NC(=O)[C@H](CC(C)C)NC(=O)[C@H](CC(C)C)NC(=O)[C@H](Cc1c[nH]c2ccccc12)NC(=O)[C@H](CC(N)=O)NC(=O)[C@@H](NC(=O)[C@H](Cc1ccccc1)NC(=O)[C@H](CCC(=O)O)NC(=O)C(C)(C)NC(=O)[C@H](C)NC(=O)[C@H](C)NC(=O)[C@H](CCC(N)=O)NC(=O)[C@H](CCCCN)NC(=O)[C@H](CC(=O)O)NC(=O)[C@H](CC(C)C)NC(=O)[C@H](Cc1ccc(O)cc1)NC(=O)[C@@H](NC(=O)[C@H](CO)NC(=O)[C@H](Cc1ccc(O)cc1)NC(=O)[C@H](CC(=O)O)NC(=O)[C@H](CO)NC(=O)[C@@H](NC(=O)[C@H](Cc1ccccc1)NC(=O)[C@@H](NC(=O)CNC(=O)[C@H](CCC(=O)O)NC(=O)CSCC(=O)NCCN1C(=O)CSC1=O)[C@@H](C)O)[C@@H](C)O)[C@@H](C)CC)C(C)C)C(N)=O [Compound 60]	98	0.1 to 1	98	0.1 to 1	37	1 to 10	37	1 to 10	> 1000	–	–	–	–	–	–
CC[C@H](C)[C@H](NC(=O)[C@H](CO)NC(=O)[C@H](Cc1ccc(O)cc1)NC(=O)[C@H](CC(=O)O)NC(=O)[C@H](CO)NC(=O)[C@@H](NC(=O)[C@H](Cc1ccccc1)NC(=O)[C@@H](NC(=O)CNC(=O)[C@H](CCC(=O)O)NC(=O)CCC(=O)NCCN1C(=O)c2ccccc2C1=O)[C@@H](C)O)[C@@H](C)O)C(=O)N[C@@H](Cc1ccc(O)cc1)C(=O)N[C@@H](CC(C)C)C(=O)N[C@@H](CC(=O)O)C(=O)N[C@@H](CCCCN)C(=O)N[C@@H](CCC(N)=O)C(=O)N[C@@H](C)C(=O)N[C@@H](C)C(=O)NC(C)(C)C(=O)N[C@@H](CCC(=O)O)C(=O)N[C@@H](Cc1ccccc1)C(=O)N[C@H](C(=O)N[C@@H](CC(N)=O)C(=O)N[C@@H](Cc1c[nH]c2ccccc12)C(=O)N[C@@H](CC(C)C)C(=O)N[C@@H](CC(C)C)C(=O)N[C@@H](C)C(=O)NCC(=O)NCC(=O)N1CCC[C@H]1C(=O)N[C@@H](CO)C(=O)N[C@@H](CO)C(=O)NCC(=O)N[C@@H](C)C(=O)N1CCC[C@H]1C(=O)N1CCC[C@H]1C(=O)N1CCC[C@H]1C(=O)N[C@@H](CO)C(=O)N[C@@H](CCCCN)C(N)=O)C(C)C [Compound 187]	89	–	89	–	58	–	58	–	–	10 to 100	10 to 100	10 to 100	10 to 100	> 1000	–
CCCCCCCCCCCCCCCC(=O)N[C@@H](CCC(=O)NCCCC[C@H](NC(=O)[C@H](CO)NC(=O)[C@@H]1CCCN1C(=O)[C@@H]1CCCN1C(=O)[C@@H]1CCCN1C(=O)[C@H](C)NC(=O)CNC(=O)[C@H](CO)NC(=O)[C@H](CO)NC(=O)[C@@H]1CCCN1C(=O)CNC(=O)CNC(=O)[C@H](C)NC(=O)[C@H](CC(C)C)NC(=O)[C@H](CC(C)C)NC(=O)[C@H](Cc1c[nH]c2ccccc12)NC(=O)[C@H](CC(N)=O)NC(=O)[C@@H](NC(=O)[C@H](Cc1ccccc1)NC(=O)[C@H](CCC(=O)O)NC(=O)C(C)(C)NC(=O)[C@H](C)NC(=O)[C@H](C)NC(=O)[C@H](CCC(N)=O)NC(=O)[C@H](CCCCN)NC(=O)[C@H](CC(=O)O)NC(=O)[C@H](CC(C)C)NC(=O)[C@H](Cc1ccc(O)cc1)NC(=O)[C@@H](NC(=O)[C@H](CO)NC(=O)[C@H](Cc1ccc(O)cc1)NC(=O)[C@H](CC(=O)O)NC(=O)[C@H](CO)NC(=O)[C@@H](NC(=O)[C@H](Cc1ccccc1)NC(=O)[C@@H](NC(=O)CNC(=O)[C@H](CCC(=O)O)NC(=O)CSCC(=O)NCCn1c(C)cccc1=O)[C@@H](C)O)[C@@H](C)O)[C@@H](C)CC)C(C)C)C(N)=O)C(=O)O [Compound 240]	–	–	97	–	–	–	60	–	–	–	0.1 to 1	–	1 to 10	> 1000	–
